≈ marks a conversion by molar mass, not a printed value. Entries after “also recorded” stand apart in the source; their conditions may differ. Where two headings read alike, the source gives them in different places.
Experiments:
[1] = organic solvents; cited from earlier work
[2] = Stability on storage / at ambient conditions; assay type: physicochemical
[3] = Solubility in organic solvents; assay type: physicochemical; conditions: for solubility (comparison in words): organic solvents
[4] = Thermal fragmentation / decomposition (thermogravimetric analysis, heating); assay type: physicochemical; conditions: for thermal conversion of spin-cast film to pentacene: heating amorphous thin films cast from toluene
Protocol: FIG. 2 presents thermogravimetric analysis curves for compounds 1 (blue) and 2 (red) at 10° C./min heating rate, assessing the carbon monoxide (CO) expulsion reaction, in which the carbonyl bridge is released from the precursor for conversion to pentacene.
Melting points were taken on a Fargo MP-2D melting-point apparatus and were not corrected. UV spectra were recorded on a Hewlett-Packard 8453 spectrophotometer. Infrared spectra were measured on a Perkin-Elmer L118-F000 FT-IR spectrometer as either thin film or solid dispersion in KBr. Nuclear magnetic resonance spectra were recorded on Bruker AC300 and AV500 super-conducting FT NMR spectrometers with all chemical shifts reported in ppm from tetramethylsilane as an internal standard. Mass spectra were obtained on a Joel JMS 700 double focusing spectrometer. Elemental analyses were performed on a Perkin-Elmer 2400 elemental analyzer. Thermal gravimetric analyses were measured on a Perkin-Elmer Pyris 1 thermogravimetric analyzer. Differential scanning calorimetry was done on a Perkin-Elmer DCS-7 instrument. Column chromatography was carried out using 230-400 mesh silica gel.

[5] = heating; earlier reports; cited from earlier work
[6] = toluene, solutions for spin-casting
[7] = organic solvent or mixture, dichloromethane (DCM) and tetrahydrofuran (THF), read-out: solubility

In the case of c1ccc(-c2ccc3cc4cc(-c5ccccc5)ccc4cc3c2)cc1 [Compound 37], the solubility [1] is listed as “undesirably low solubility”.

For O=C1C2C=CC1c1cc3c(cc12)[C@H]1C(=O)[C@H]3c2cc3c(cc21)C1C=C[C@H]3C1=O [Compound 14], the “stability (in words)” value [2] was “relatively low”.

For COC1(OC)C2C=CC1c1cc3cc4cc5c(cc4cc3cc12)C1C=CC5C1(OC)OC [Compound 25], the solubility [3, 6] was “good solubility”, the decomposition temperature ([4]; anti isomer) was 288 °C and the “thermal conversion of spin-cast film to pentacene” value [4] was “did not yield either pentacene or 1,2,3,4,8,9,10,11-octachloropentacene”. The decomposition temperature ([4]; syn isomer) was 252 °C.

In the case of O=C1[C@@H]2C=C[C@@H]1c1cc3cc4cc5ccccc5cc4cc3cc12 [Compound 11], the “stability (in words)” value [2] is reported as “relatively low”.

With COC1(OC)C2(Cl)C(Cl)=C(Cl)C1(Cl)c1cc3cc4cc5c(cc4cc3cc12)C1(Cl)C(Cl)=C(Cl)C5(Cl)C1(OC)OC [Compound 23] the solubility [3, 6] was “good solubility”, the decomposition temperature ([4]; anti isomer) was 297 °C and the “thermal conversion of spin-cast film to pentacene” value [4] was “did not yield either pentacene or 1,2,3,4,8,9,10,11-octachloropentacene”. For the same compound, the decomposition temperature ([4]; syn isomer) was 271 °C.

With O=C1C2C=CC1c1cc3cc4cc5c(cc4cc3cc12)C1C=CC5C1=O [Compound 13] the “stability (in words)” value [2] was “cannot be isolated at ambient temperature; also recorded: relatively low”.

In the case of c1csc(-c2ccc3cc4cc(-c5cccs5)ccc4cc3c2)c1 [Compound 35], the solubility [1] is listed as “undesirably low solubility”.

In the case of C(=C\c1cccs1)/c1ccc2cc3cc(/C=C/c4cccs4)ccc3cc2c1 [Compound 36], the solubility [1] is given as “undesirably low solubility”.

For C1=C[C@@H]2c3cc4cc5cc6c(cc5cc4cc3[C@@H]1[C@]21OCCO1)[C@H]1C=C[C@@H]6[C@]12OCCO2 [Compound 16], the “fragmentation / dissociation temperature of ethylene ketal (CO2 and ethylene released)” value ([4]; TGA) was “about 225 °C”.

In the case of C(=C\c1ccc2cc3cc(/C=C/c4ccccc4)ccc3cc2c1)/c1ccccc1 [Compound 38], the solubility [1] is listed as “undesirably low solubility”.

With O=C1C2c3ccccc3[C@@H]1c1cc3c(cc12)[C@@H]1C(=O)[C@@H]3c2ccccc21 [Compound 12] the “solubility (comparison in words)” value [3] was “higher solubility than either compound 1 or 2” and the “stability (in words)” value [2] was “stable at low temperature for a long period of time; also recorded: can be kept at −10 °C for an extended period of time”.

For O=C1C2C=CC1c1cc3cc4cc5c(cc4cc3cc12)C1C=CC5C1=O [Compound 13A], the “stability (in words)” value [2] was “decomposed readily at ambient conditions; also recorded: not stable enough to sustain at ambient conditions”.

In the case of c1ccc2cc3cc4cc5ccccc5cc4cc3cc2c1 [pentacene], the “temperature up to which stable” value ([4]; pentacene produced from compound 2, TGA) is reported as 300 °C.

In the case of O=C1[C@H]2c3cc4ccccc4cc3[C@H]1c1cc3ccccc3cc12 [Compound 1, reference compound], the solubility [3, 7] is listed as about 700 µg/mL (≈ 2280 µM), the “temperature of CO extrusion to pentacene” value [5] is listed as 150 °C and the “temperature at which CO expulsion / decomposition starts” value ([4]; TGA, 10° C./min heating rate) is listed as 150 °C.

In the case of O=C1[C@@H]2c3ccccc3[C@@H]1c1cc3cc4ccccc4cc3cc12 [Compound 2], the solubility [3, 7] is reported as about 700 µg/mL (≈ 2280 µM), the “solubility (comparison in words)” value [3] is reported as “better than compound 1” and the “stability (in words)” value [2] is reported as “stable at ambient temperature”. The “temperature of CO extrusion to pentacene” value [5] was 128 °C and the weight loss ([4]; thermogravimetric curve, corresponds to a CO unit) was 10%.
